Measured values as given in PMC7760315 (Biomolecules, 2020).
Values joined by “and” are separate entries in the source; they are usually repeats but may differ in a detail not shown here. Equal entries are not always repeated.

Columns and labels:
GlyRα1 [1] = target: T1, GlyRα1 (Homo sapiens, UniProt P23415); assay: Two-electrode voltage clamp, Xenopus laevis oocytes expressing GlyRα1 alone; format: cell-based; conditions: for nH of glycine dose-response in the presence of lipid: 1 µM lipid, fast-flow
T1 construct: expressed in transfected cells; host or cells: Xenopus laevis oocytes (cRNA injection)
T1 sequence (P23415 29-457): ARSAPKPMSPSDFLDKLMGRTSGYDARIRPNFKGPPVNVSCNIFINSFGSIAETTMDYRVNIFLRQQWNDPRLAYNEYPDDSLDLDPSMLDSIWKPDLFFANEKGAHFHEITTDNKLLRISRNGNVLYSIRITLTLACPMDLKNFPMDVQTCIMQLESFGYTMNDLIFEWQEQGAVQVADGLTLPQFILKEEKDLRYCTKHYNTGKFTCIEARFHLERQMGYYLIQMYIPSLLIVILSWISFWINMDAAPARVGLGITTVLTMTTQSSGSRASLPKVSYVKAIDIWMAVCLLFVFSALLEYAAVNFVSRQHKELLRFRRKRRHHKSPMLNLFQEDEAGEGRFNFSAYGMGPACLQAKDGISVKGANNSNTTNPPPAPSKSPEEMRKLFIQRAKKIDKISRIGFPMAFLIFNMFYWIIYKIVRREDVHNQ
Source text: (§1) Human GlyT1b and GlyT2a WT cDNA were subcloned into the plasmid oocyte transcription vector (pOTV) and human GlyRα1, GlyRα3 and GlyRβ into pGEMHE. GlyR cDNA pGEMHE vectors were provided by Mary Collins at the University of Sydney (Sydney, Australia). Single point mutations were introduced into GlyRα1 using the Q5 site-directed mutagenesis kit (New England Biolabs (Genesearch), Arundel, Australia) with oligonucleotide primers (Merck, Sydney, Australia) containing the desired mutations. The amplified cDNA/pOTV or cDNA/pGEMHE product was then transformed in E. coli cells, and subsequently purified using the PureLink Quick Plasmid Miniprep Kit (Invitrogen by Life Technologies, Löhne, Germany), and sequenced by the Australian Genome Research Facility (Sydney, Australia). The purified plasmid DNA was linearised via the restriction enzyme, SpeI (New England Biolabs (Genesearch), Arundel, Australia) for GlyT1b and GlyT2a (henceforth referred to as GlyT1 and GlyT2 respectively) and NheI (New England Biolabs (Genesearch)) for GlyRα1, GlyRα3 and GlyRβ. Complementary RNAs were synthesised using the mMESAGE mMACHINE T7 kit (Ambion, Austin, TX, USA).
(§2) All work involving the use of animals was performed in accordance with the Australian Code of Practice for the Care and Use of Animals for Scientific Purposes and approved by the University of Sydney Animal Ethics Committee (Approval numbers 2016/970 and 2020/1704). […] The oocytes were then stored in frog Ringer’s solution (96 mM NaCl, 2 mM KCl, 1 mM MgCl2, 1.8 mM CaCl2, 5 mM HEPES, pH 7.5) which was supplemented with 2.5 mM sodium pyruvate, 0.5 mM theophylline, 50 μg/mL gentamicin and […] tetracycline. The oocytes were stored at 18 °C for 3–5 days, until transporter and receptor expression were adequate for measurement using the two-electrode voltage clamp technique.
(§3) GlyT1, GlyT2, GlyRα1, GlyRα3, GlyRα1β and GlyRα3β are electrogenic, allowing activation to be measured via the two-electrode voltage clamp technique. Oocytes were voltage clamped at −60 mV, and whole-cell currents generated by the substrate were recorded with a Geneclamp 500 amplifier (Axon Instruments, Foster City, CA, USA), digitised by a Powerlab 2/20 chart recorder (ADInstruments, Sydney, Australia). LabChart version 8 software (ADInstruments, Sydney, Australia) was used to visualise and process current traces. Recordings were performed in frog Ringer’s solution, except for low Na^+ experiments where Na^+ was replaced with choline. Oocytes were placed in an oval-shaped bath with a volume of 0.3 mL, with laminar flow around the oocyte at a rate of 12 mL min^−1 under gravity feed.
(§4) Varying concentrations of substrate or agonist were applied to cells in ND96.
(§5) Flow of the solution was stopped until the current plateaued, by manually closing a three-way valve on one end of the bath such that the solution in the bath was static and is referred to henceforth as ‘stop-flow’.

GlyT2 = conditions: cited from earlier work; for GlyT2 Activity: % Inhibition (1 µM): 1 µM lipid, inhibition of glycine transport; for IC50: inhibition of glycine transport by GlyT2
GlyRα1 [2] = conditions: % stimulation of glycine EC5 caused by 1 µM lipid; cited from earlier work
GlyRα1/GlyT2 [3] = assay: Two-electrode voltage clamp, oocytes co-expressing GlyRα1/GlyT2; format: cell-based, human; conditions: 1 µM strychnine; for GlyT contribution to overall peak current (current in presence of strychnine as % of current without): fast-flow peak; for GlyT contribution to stopped flow current (current in presence of strychnine as % of current without): stop-flow
Source text: as §1, §2, §3
(§6) Varying concentrations of substrate or agonist were applied to cells in ND96. […]

GlyRα1/GlyT1 [4] = assay: Two-electrode voltage clamp, oocytes co-expressing GlyRα1/GlyT1; format: cell-based, human; conditions: 1 µM strychnine; for GlyT contribution to overall peak current (current in presence of strychnine as % of current without): fast-flow peak; for GlyT contribution to stopped flow current (current in presence of strychnine as % of current without): stop-flow
Source text: as §1, §2, §3, §4, §5

GlyRα1/GlyT2 [5] = target: GlyRα1/GlyT2 (Homo sapiens, UniProt P23415); assay: Two-electrode voltage clamp, oocytes co-expressing GlyRα1/GlyT2; format: cell-based
Sequence of GlyRα1/GlyT2 (Homo sapiens, UniProt P23415) (Q9Y345 whole entry partner, one chain of several): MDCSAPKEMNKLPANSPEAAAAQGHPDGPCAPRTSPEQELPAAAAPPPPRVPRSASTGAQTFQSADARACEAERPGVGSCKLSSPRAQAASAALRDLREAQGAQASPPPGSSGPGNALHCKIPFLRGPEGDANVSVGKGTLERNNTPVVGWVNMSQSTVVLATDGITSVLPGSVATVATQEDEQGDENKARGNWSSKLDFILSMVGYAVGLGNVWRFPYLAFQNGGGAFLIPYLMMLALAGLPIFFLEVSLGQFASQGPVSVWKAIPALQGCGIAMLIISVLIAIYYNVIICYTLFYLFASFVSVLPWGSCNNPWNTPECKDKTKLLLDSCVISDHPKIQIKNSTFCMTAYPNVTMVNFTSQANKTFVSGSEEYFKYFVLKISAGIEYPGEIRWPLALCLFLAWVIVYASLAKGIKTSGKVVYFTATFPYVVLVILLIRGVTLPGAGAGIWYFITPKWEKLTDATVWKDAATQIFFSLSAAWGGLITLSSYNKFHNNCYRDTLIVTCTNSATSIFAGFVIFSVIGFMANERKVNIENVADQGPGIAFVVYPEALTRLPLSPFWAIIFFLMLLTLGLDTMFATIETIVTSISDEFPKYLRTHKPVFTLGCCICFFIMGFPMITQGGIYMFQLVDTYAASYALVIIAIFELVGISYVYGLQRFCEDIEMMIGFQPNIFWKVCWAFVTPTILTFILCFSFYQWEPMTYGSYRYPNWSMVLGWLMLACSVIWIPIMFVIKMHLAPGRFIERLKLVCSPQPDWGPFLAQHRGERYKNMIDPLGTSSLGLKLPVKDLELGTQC
Source text: as §1, §2, §3, §6

GlyRα1/GlyT1 [6] = target: T2, GlyRα1/GlyT1 (Homo sapiens, UniProt P23415); assay: Two-electrode voltage clamp, oocytes co-expressing GlyRα1/GlyT1; format: cell-based; conditions: non-transportable GlyR agonist; read-out: β-alanine EC50
T2 construct: expressed in transfected cells; host or cells: Xenopus laevis oocytes (cRNA co-injection)
T2 sequence (P23415 29-457): T1 sequence (P23415 29-457)
Source text: as §1, §2, §3, §4, §5

CCCCCCCCC=CCCCCCCCC(=O)NC(CCSC)C(=O)O [C18-cis-ω9-L-methionine]
nH of glycine dose-response in the presence of lipid (GlyRα1 [1]): 2.2 ± 0.3 ns
GlyT2 Activity: % Inhibition (1 µM) (GlyT2): 84.9 ± 0.07%
IC50 (GlyT2): 0.0292 µM
GlyT2 Activity: Max inhibition (%) (GlyT2; maximal level of inhibition observed): 91.2%
GlyRα1 Potentiation at EC5 (%) (GlyRα1 [2]): 2.2 ± 4.2% and 2.2 ± 4.2 (6) %

CCCCCC/C=C\CCCCCCCCCC(=O)NCC(=O)O [C18-cis-ω7-glycine]
nH of glycine dose-response in the presence of lipid (GlyRα1 [1]): 2.8 ± 0.3 ns
GlyT2 Activity: % Inhibition (1 µM) (GlyT2): 10.5 ± 0.02%
IC50 (GlyT2): > 10 µM
GlyRα1 Potentiation at EC5 (%) (GlyRα1 [2]): 184.7 ± 41.3 (5) %

O=C1C[C@@H]2OCC=C3CN4CC[C@]56c7ccccc7N1[C@H]5[C@H]2[C@H]3C[C@H]46 [strychnine]
GlyT contribution to overall peak current (current in presence of strychnine as % of current without) (GlyRα1/GlyT2 [3]; 10 µM glycine): 16.6 ± 3.7%
GlyT contribution to stopped flow current (current in presence of strychnine as % of current without) (GlyRα1/GlyT2 [3]; 10 µM glycine): 16.2 ± 2.1%
GlyT contribution to overall peak current (current in presence of strychnine as % of current without) (GlyRα1/GlyT2 [3]; 30 µM glycine): 1.7 ± 0.4%
GlyT contribution to stopped flow current (current in presence of strychnine as % of current without) (GlyRα1/GlyT2 [3]; 30 µM glycine): 1.6 ± 0.4%
GlyT contribution to overall peak current (current in presence of strychnine as % of current without) (GlyRα1/GlyT1 [4]; 10 µM glycine): 53.2 ± 6.9%
GlyT contribution to stopped flow current (current in presence of strychnine as % of current without) (GlyRα1/GlyT1 [4]; 10 µM glycine): 61.5 ± 13.9%
GlyT contribution to overall peak current (current in presence of strychnine as % of current without) (GlyRα1/GlyT1 [4]; 30 µM glycine): 14.4 ± 1.8%
GlyT contribution to stopped flow current (current in presence of strychnine as % of current without) (GlyRα1/GlyT1 [4]; 30 µM glycine): 5.2 ± 1.3%

NCCC(=O)O [β-alanine]
EC50 (GlyRα1 [1]; non-transportable GlyR agonist, read-out: β-alanine EC50): 28.3 µM
EC50 (GlyRα1/GlyT2 [5]): 27.4 µM
EC50 (GlyRα1/GlyT1 [6]): 28 µM
